Measured values as given in US4032536A, “(1H-Benzimidazol-2-yl)carbamates” (Janssen Pharmaceutica N.V., priority 1976, dated 1977).

Legend:
Syphacia muris = assay: Activity against Syphacia muris in rats; type: in vivo; details: po, 120 h, orally by gavage, autopsy five days after treatment
Description: A. Activity against Syphacia muris in rats.
(§1) Syphacia muris was selected as a test organism since this organism manifests its relationship with the human oxyuris, Enterobin vermicularis,by its life cycle, by the cyclical period of activity and by laying its eggs in the peri-anal zone. For artificial infections, adhesive cellophane tape is used to recover the eggs from the peri-anal skin and this tape is administered orally to rats. The thus-infected animals are housed in individual cages with food and water ad libitum. The compound to be tested is administered orally by gavage. A sterile saline solution or suspension of the compound is made at various concentrations corresponding to 40, 10, 2.5, 1.25, 0.63, 0.31 and 0.16 mg/kg body weight. Control animals receive the same amount of saline. Five days thereafter the animals are sacrificed. Coecum, colon and rectum are isolated and washed on a sieve of mesh 100. Table I gives the ED50 -values for a number of the compounds of formula (I). The compounds listed therein are not given for the purpose of limiting the invention thereto but only to exemplify the useful anthelmintic properties of all the compounds within the scope of formula (I).

Strongyloides ratti = assay: Activity against Strongyloides ratti in rats; type: in vivo; details: po, young male Wistar rats, orally, treated on day 7 after infection, autopsied day 13, 50% reduction of number of worms vs untreated controls
Description: as §1
B. Activity against Strongyloides ratti in rats.
Young male Wistar rats, weighing about 100 g are used in this test. Infective larvae of Strongyloides ratti are collected from charcoal cultures, put into a beaker with tapwater and stirred magnetically for counting. The rats are infected subcutaneously with about 1000 larvae, treated on day 7 after infection in the same manner as described in experiment A, and autopsied on day 13. The anterior part of the intestine is divided into two sections, each of 10 cm. length and placed inside out on a wood-applicator. These sections are incubated in physiological saline for 4 hours at 37° C. Worms obtained from the sedimentation of incubation saline are sampled and counted under a dissection microscope. In table I are given ED50 -values for a number of compounds of formula (I). These ED50 -values represent the amount of the compound under investigation in mg/kg which reduces the number of worms 50% with respect to the number found in the untreated control animals.

SMILES	ED50 (Syphacia muris)	ED50 (Strongyloides ratti)
COC(=O)Nc1nc2ccc(C3(c4cccs4)OCC(C)O3)cc2[nH]1 (stereo not shown)	10 mg/kg	10 mg/kg
COC(=O)Nc1nc2ccc(C3(c4cccs4)OCCO3)cc2[nH]1	2.5 mg/kg	2.5 mg/kg
COC(=O)Nc1nc2ccc(C3(c4ccccc4)OC(C)C(C)O3)cc2[nH]1 (stereo not shown)	2.5 mg/kg	1.25 mg/kg
COC(=O)Nc1nc2ccc(C3(c4ccccc4)OCCC(C)O3)cc2[nH]1 (stereo not shown)	40 mg/kg	1.25 mg/kg
COC(=O)Nc1nc2ccc(C3(c4cccs4)OCCC(C)O3)cc2[nH]1 (stereo not shown)	10 mg/kg	10 mg/kg
COC(=O)Nc1nc2ccc(C3(c4cccs4)OCC(C)(C)CO3)cc2[nH]1	40 mg/kg	10 mg/kg
COC(=O)Nc1nc2ccc(C3(c4ccccc4)OCC(C)(C)CO3)cc2[nH]1	10 mg/kg	2.5 mg/kg
COC(=O)Nc1nc2ccc(C3(c4ccccc4)OCCO3)cc2[nH]1	1.25 mg/kg	0.63 mg/kg
COC(=O)Nc1nc2ccc(C3(c4ccc(F)cc4)OCCO3)cc2[nH]1	5 mg/kg	0.31 mg/kg
COC(=O)Nc1nc2ccc(C3(c4ccccc4)OCC(C)O3)cc2[nH]1 (stereo not shown)	2.5 mg/kg	0.31 mg/kg
COC(=O)Nc1nc2ccc(C3(c4cccs4)OC(C)C(C)O3)cc2[nH]1 (stereo not shown)	2.5 mg/kg	10 mg/kg
